Experimental data: patent US5258377A, “2-spirocyclopropyl 4-acylcephems” (Taiho Pharmaceutical Co., Ltd., priority 1991, dated 1993)

molecular target: T1, human leukocyte elastase (HLE) (Homo sapiens, UniProt P08246); test: in vitro anti-elastase activity against human leukocyte elastase (HLE); type: biochemical
T1 sequence (P08246 30-247 limits assumed): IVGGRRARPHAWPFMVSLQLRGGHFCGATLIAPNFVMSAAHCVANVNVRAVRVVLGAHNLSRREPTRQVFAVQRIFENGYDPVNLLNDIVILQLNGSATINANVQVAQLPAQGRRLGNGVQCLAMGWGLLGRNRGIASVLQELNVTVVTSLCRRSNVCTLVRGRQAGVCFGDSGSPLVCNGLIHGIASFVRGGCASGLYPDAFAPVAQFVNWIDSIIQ

Row | SMILES | IC50 [nM]
1 | CC1=C(C(=O)c2ccccc2)N2C(=O)[C@H](Cl)[C@H]2S(=O)(=O)C12CC2(c1ccccc1)c1ccccc1 (stereo partly drawn) [Compd 4, 7α-chloro-2-spiro (2',2'-diphenyl)cyclopropyl-3-methyl-3-cephem-4-phenylcarbonyl 1,1-dioxide] | 8.9
2 | CCCCC(=O)C1=C(C)C2(CC2(c2ccccc2)c2ccccc2)S(=O)(=O)[C@@H]2[C@@H](OC)C(=O)N12 (stereo partly drawn) [Compd 3, 7α-Methoxy-2-spiro(2',2'-diphenyl)cyclopropyl-3-methyl-3-cephem-4-butylcarbonyl 1,1-dioxide] | 7.4
3 | CCC(=O)C1=C(C)C2(CC2(c2ccccc2)c2ccccc2)S(=O)(=O)[C@@H]2[C@@H](OC)C(=O)N12 (stereo partly drawn) [Compd 2, 7α-Methoxy-2-spiro (2',2'-diphenyl)cyclopropyl-3-methyl-3-cephem-4-ethylcarbonyl 1,1-dioxide] | 10.3

Other lines, results leading:

Row | IC50 [nM] | SMILES
4 | 12 | CO[C@H]1C(=O)N2C(C(=O)C(C)(C)C)=C(C)C3(CC3(c3ccccc3)c3ccccc3)S(=O)(=O)[C@H]12 (stereo partly drawn) [Compd 6, 7α-Methoxy-2-spiro(2',2'-diphenyl)cyclopropyl-3-methyl-3-cephem-4-t-butylcarbonyl 1,1-dioxide]
5 | 6.3 | CC1=C(C(=O)C(C)(C)C)N2C(=O)[C@H](Cl)[C@H]2S(=O)(=O)C12CC2(c1ccccc1)c1ccccc1 (stereo partly drawn) [Compd 5, 7α-Chloro-2-spiro(2',2'-diphenyl)cyclopropyl-3-methyl-3-cephem-4-t-butylcarbonyl 1,1-dioxide]
